Data: article PMC11020070, “Discovery of Protease-Activated Receptor 4 (PAR4)-Tethered Ligand Antagonists Using Ultralarge Virtual Screening” (ACS Pharmacology & Translational Science, 2024)

How the values were obtained:
PAR4 = biological target: T1, PAR4 (Homo sapiens, UniProt Q96RI0); assay: Schild analysis, progressive fold-shift against γ-thrombin in platelets; type: cell-based; design: endogenous in cells; host or cells: platelets; details: for mode of inhibition: against γ-thrombin activation; for Schild plot slope m: slope of linear regression, γ-thrombin, 20 min pretreatment
T1 sequence (Q96RI0 18-385): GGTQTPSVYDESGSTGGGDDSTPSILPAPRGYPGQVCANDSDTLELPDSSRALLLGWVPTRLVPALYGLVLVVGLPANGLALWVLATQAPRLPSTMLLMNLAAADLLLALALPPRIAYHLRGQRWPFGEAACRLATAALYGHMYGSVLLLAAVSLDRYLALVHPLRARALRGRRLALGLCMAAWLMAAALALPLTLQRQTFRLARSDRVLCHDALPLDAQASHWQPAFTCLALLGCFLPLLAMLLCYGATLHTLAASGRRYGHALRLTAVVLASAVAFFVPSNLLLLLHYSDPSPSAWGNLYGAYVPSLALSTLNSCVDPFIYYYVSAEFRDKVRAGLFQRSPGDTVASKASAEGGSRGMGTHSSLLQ
Procedure: A Schild analysis was performed on compounds 12 and 31 to determine the mode of inhibition of these compounds.
Figure 7 Schild analysis progressive fold-shift experiments. (A) Platelets were pretreated with increasing concentrations of each antagonist for 20 min prior to activation with increasing concentrations of γ-thrombin. (B) Logarithmic transformation of the dose ratio plotted versus the logarithm of compound concentration. m = slope of linear regression. TEXT PRINTED IN THE PICTURE: (B) 12: m = 0.99 | (D) 31: m = 0.95

[1] = Microsomal stability, mouse liver microsomes; type: in vitro ADME; details: for CLint scaled at 1 µM: pH 7.4, mouse liver microsomes, in vitro, reaction started with NADPH; for mouse CLhep: predicted hepatic clearance from mouse liver microsomes
Procedure: The metabolic stability of each compound was investigated in mouse and human hepatic microsomes using substrate depletion methodology (% parent compound remaining). Prior to use, microsomes were removed from the freezer and allowed to thaw in a 37 °C water bath before being placed on wet ice.
In separate 96-well plates for each time point, a mixture of 0.1 M potassium phosphate-buffered (pH 7.4), 3 mM MgCl2, and 2.5 mg/mL microsomes were prewarmed at 37 °C for 5 min. Following the preincubation, a 1 μM test compound and 1 mM NADPH (for 3, 7, 15, 25, or 45 min time points) or buffer (for 0 min time point) were added to initiate the reaction. Under standard conditions, reactions were initiated with the addition of NADPH. To delineate the contribution of esterases, some experiments were initiated by the addition of substrate in the presence or absence of NADPH. Plates were incubated at 37 °C under ambient oxygenation. At the respective times, each plate’s reaction was precipitated by the addition of 2 volumes of ice-cold acetonitrile containing an internal standard (carbamazepine, 50 nM). The plates were centrifuged at 4000 rcf (4 °C) for 5 min. The resulting supernatants were transferred and diluted 1:1 (supernatant:water) into new 96-well plates in preparation for LC/MS/MS analysis. Each compound was assayed in triplicate within the same 96-well plate. The in vitro half-life (t1/2, min, eq 1), intrinsic clearance (CLint, mL/min/kg, eq 2), and subsequent predicted hepatic clearance (CLhep, mL/min/kg, eq 3) were determined employing the following equations [drawing 1] 1 [drawing 2] 2 [drawing 3] 3 The estimated percent contribution to metabolism was calculated from the percent substrate lost plots generated from metabolic incubations initiated with the addition of a test compound. Calculations compared the area under the curve (AUC) from conditions in the presence and absence of NADPH and buffer-only (control) conditions (eqs 4 and 5). AUC was calculated by using the trapezoidal method [drawing 4] 4 [drawing 5] 5
The analysis of in vitro samples from microsomal stability or plasma protein binding experiments was determined by employing LCMS/MS with an electrospray ionization-enabled 5500 Sciex instrument (Sciex, Foster City, CA) that was coupled to Agilent HPLC pumps and an autosampler (Agilent Technologies, Santa Clara, CA). Analytes were separated by gradient elution using a Kinetex C18 column (2.1 mm × 50 mm, 5 μm; Phenomenex, Torrance, CA) warmed to 35 °C. Mobile phase A was 0.5% formic acid in water, and mobile phase B was 0.5% formic acid in acetonitrile. […] The total run time was 2.8 min, and the HPLC flow rate was 0.5 mL/min. Mass spectral analyses were performed using multiple reaction monitoring, with transitions and voltages specific for each analyte using a Turbo Ion Spray source (source temperature of 500 °C) in positive ionization mode (5.0 kV spray voltage). Multiple reaction monitoring transitions were the following: 6110B8 (m/z 345.02 → 149.03, DP = 31; EP = 10; CE = 37 and CXP = 14), 6G3R (m/z 421.06 → 225.12, DP = 91; EP = 10; CE = 39 and CXP = 12), 5D22 (m/z 309.068 → 211.16, DP = 131; EP = 10; CE = 29 and CXP = 12), and carbamazepine (m/z 237 → 194, DP = 96; EP = 10; CE = 25 and CXP = 8). Data were analyzed using OS Sciex Analyst 1.5.1 (SCIEX, Framingham, MA), Graphpad Prism 10.1.0 (GraphPad Software, Boston, Massachusetts), and Microsoft Excel version 2310 (Microsoft, Redmond, WA).

[2] = Plasma protein binding, mouse plasma; type: in vitro ADME; details: pH 7.4, read-out: mouse PPB fu
Procedure: The protein binding of each compound was determined in mouse plasma via equilibrium dialysis employing single-use RED plates with inserts (Thermo Fisher Scientific, Rochester, NY). Plasma (220 μL) was added to a 96-well plate containing test compound (5 μL) and mixed thoroughly. Subsequently, 200 μL of the plasma–compound mixture was transferred to the cis chamber (red) of the RED plate with an accompanying 350 μL of phosphate buffer (25 mM, pH 7.4) in the trans chamber. The RED plate was sealed and incubated for 4 h at 37 °C with shaking. At completion, 50 μL aliquots from each chamber were diluted 1:1 (50 μL) with either plasma (cis) or buffer (trans) and transferred to a new 96-well plate, at which time ice-cold acetonitrile (2 volumes) was added to extract the matrices. The plate was centrifuged (3000 rpm, 10 min), and supernatants were transferred and diluted 1:1 (supernatant: water) into a new 96-well plate, which was then sealed in preparation for LC/MS/MS analysis. Each compound was assayed in triplicate within the same 96-well plate.
The analysis of in vitro samples from microsomal stability or plasma protein binding experiments was determined by employing LCMS/MS with an electrospray ionization-enabled 5500 Sciex instrument (Sciex, Foster City, CA) that was coupled to Agilent HPLC pumps and an autosampler (Agilent Technologies, Santa Clara, CA). Analytes were separated by gradient elution using a Kinetex C18 column (2.1 mm × 50 mm, 5 μm; Phenomenex, Torrance, CA) warmed to 35 °C. Mobile phase A was 0.5% formic acid in water, and mobile phase B was 0.5% formic acid in acetonitrile. […] The total run time was 2.8 min, and the HPLC flow rate was 0.5 mL/min. […] Data were analyzed using OS Sciex Analyst 1.5.1 (SCIEX, Framingham, MA), Graphpad Prism 10.1.0 (GraphPad Software, Boston, Massachusetts), and Microsoft Excel version 2310 (Microsoft, Redmond, WA).

Row | mode of inhibition (PAR4) | Schild plot slope m (PAR4) | CLint scaled at 1 µM [1] [mL/min/kg] | mouse CLhep [1] [mL/min/kg] | fraction unbound at 4 h [2] | Structure (SMILES)
1 | competitive | 0.99 | 11500 | 89.3 | 0.169 | Cn1nc(C(=O)Nc2n[nH]c(-c3c(F)cccc3F)n2)cc1C1CC1 [Compound 12]
2 | – | – | 2440 | 86.8 | 0.006 | O=C(Nc1nc[nH]n1)c1nn(-c2ccccc2)c2c1CCC2 [Compound 17]
3 | competitive | 0.95 | 19900 | 89.6 | 0.044 | O=C(Nc1n[nH]c(-c2ccc(F)cc2F)n1)c1nn(-c2ccccc2)c2c1CCCC2 [Compound 31]
